Measurements taken from ChEMBL document CHEMBL3588748, “Original 2-(3-Alkoxy-1H-pyrazol-1-yl)azines Inhibitors of Human Dihydroorotate Dehydrogenase (DHODH)” (J Med Chem, 2015).
The source made the active and inactive calls. No rule for the calls is given here.

Experiments:
Plasmodium falciparum = experiment: Antiplasmodial activity against Plasmodium falciparum 3D7 assessed as inhibition of parasite growth at 8.66 ug/ml by SYBR Green I dye based assay; assay type: functional, organism-based

Description for Measles morbillivirus: Antiviral activity against measles virus rMV2/Luc infected in HEK-293T cells assessed as inhibition of virus growth incubated for 24 hrs by firefly luciferase reporter gene assay

Structure (SMILES) | growth inhibition (GI) (Plasmodium falciparum) | pMIC50 (Measles morbillivirus)
Cc1c(Oc2c(F)cccc2F)c(OC(C)C)nn1-c1ccccn1 | inactive | <5
CCOc1nn(-c2ccc(C3CC3)cn2)c(C)c1Oc1ccccc1Br | inactive | 7.8
CCOc1nn(-c2ccc(C3CC3)nn2)c(C)c1Oc1ccccc1F | inactive | 7.7
CCOc1nn(-c2ncc(Br)cc2C)c(C)c1Cc1ccccc1 | inactive | <5
COc1cnc(-n2nc(OC(C)C)c(Oc3c(F)cccc3F)c2C)cn1 | inactive | 6.1
CCOc1nn(-c2ncccc2F)c(C)c1Cc1ccccc1 | inactive | 5.2
Cc1c(Oc2ccc(F)cc2)c(OC(C)C)nn1-c1ccc(C2CC2)cn1 [IPP/CNRS-A019] | inactive | 5.9
CCOc1nn(-c2ccc(C(C)(C)O)cn2)c(C)c1Cc1ccccc1 | inactive | 5.3
CCOc1nn(-c2ncc(C3CC3)cc2C#N)c(C)c1Cc1ccccc1 | inactive | 6.6
CCOc1nn(-c2ccc(C3CC3)cn2)c(C)c1Oc1cccc(C(F)(F)F)c1 | inactive | 7.1
CCOc1nn(-c2ccc(C3CC3)nn2)c(C)c1Oc1cc(Cl)cc(Cl)c1 | inactive | 6.2
Cc1ccc(-n2nc(OC(C)C)c(Oc3c(F)cccc3F)c2C)cn1 | inactive | 
Cc1c(Oc2c(F)cccc2F)c(OC(C)C)nn1-c1ncc(C2CC2)cc1C#N | inactive | 8.1
Cc1c(Oc2c(F)cccc2F)c(OC(C)C)nn1-c1ncc(C2CC2)cc1N(C)C | inactive | 7.5
CCOc1nn(-c2ccc(C3CC3)cn2)c(C)c1Oc1ccc(C(F)(F)F)cc1 | inactive | 5.3
Cc1c(Oc2cccc(F)c2)c(OC(C)C)nn1-c1ccc(C2CC2)cn1 | inactive | 6.8
CCOc1nn(-c2ccc(C3CC3)nn2)c(C)c1Oc1cc(Cl)ccc1Cl | inactive | 6.9
CCOc1nn(-c2ccc(C(=O)OC)cn2)c(C)c1Cc1ccccc1 | inactive | <5
CCOc1nn(-c2cc(C)ccn2)c(C)c1Cc1ccccc1 | inactive | 5.4
CCOc1nn(-c2cccc(F)n2)c(C)c1Cc1ccccc1 | inactive | <5
CCOc1nn(-c2ncccc2C)c(C)c1Cc1ccccc1 | inactive | <5
COc1ccc(-n2nc(OC(C)C)c(Oc3c(F)cccc3F)c2C)cn1 | inactive | 
CCOc1nn(-c2ccc(Br)cn2)c(C)c1Cc1ccccc1 | inactive | 5.3
Cc1c(Oc2c(F)cccc2F)c(OC(C)C)nn1-c1ccc(C(C)(C)O)cn1 | inactive | 6.7
CCOc1nn(-c2ccc(C3CC3)cn2)c(C)c1Oc1cc(Cl)ccc1Cl | inactive | 7.1
CCn1cnc(-n2nc(OC(C)C)c(Oc3c(F)cccc3F)c2C)c1 | inactive | 

Structure (SMILES) | growth inhibition (GI) (Plasmodium falciparum) | pMIC50 (Measles morbillivirus)
Cc1c(Oc2ccc(F)cc2F)c(OC(C)C)nn1-c1ccc(C2CC2)cn1 | inactive | 6.5
Cc1c(Oc2c(F)cccc2F)c(OC(C)C)nn1-c1ccc(C(F)(F)F)cn1 | inactive | 6.5
CCOc1nn(-c2ccc(C3CC3)nn2)c(C)c1Oc1cccc(C(F)(F)F)c1 | inactive | 6.4
CCc1nnc(-n2nc(OC(C)C)c(Oc3c(F)cccc3F)c2C)nc1O | inactive | 7.6
CCOc1nn(-c2ccc(C3CC3)nn2)c(C)c1Oc1ccccc1C(F)(F)F | inactive | 6.8
CCOc1ccc(-n2nc(OC(C)C)c(Oc3c(F)cccc3F)c2C)nn1 | inactive | 
Cc1c(Oc2c(F)cccc2F)c(OC(C)C)nn1-c1cnc(C(F)(F)F)cn1 | inactive | 5.3
CCOc1nn(-c2ccc(C3CC3)cn2)c(C)c1Cc1ccccc1 | inactive | 7
Cc1c(Oc2c(F)cccc2F)c(OC(C)C)nn1-c1cnc(Br)cn1 | inactive | 5.5
Cc1c(Oc2c(F)cccc2F)c(OC(C)C)nn1-c1ccc(C(C)(F)F)cn1 | inactive | 7.1
CCOc1nn(-c2ccc(Cl)cn2)c(C)c1Cc1ccccc1 | inactive | 5.5
CCOc1nn(-c2ccccn2)c(C)c1Cc1ccccc1 | inactive | <5
CCOc1nn(-c2ccc(C3CC3)cn2)c(C)c1Oc1ccccc1 | inactive | 7
COc1ccc(-n2nc(OC(C)C)c(Oc3c(F)cccc3F)c2C)nc1 | inactive | 7.3
CCc1cnc(-n2nc(OC(C)C)c(Oc3c(F)cccc3F)c2C)c(F)c1 | inactive | 7.1
Cc1c(Oc2cccc(F)c2F)c(OC(C)C)nn1-c1ccc(C2CC2)cn1 | inactive | 7.4
Cc1ccc(-n2nc(OC(C)C)c(Oc3c(F)cccc3F)c2C)nc1 | inactive | 7.6
CCOc1nn(-c2ccc(C3CC3)cn2)c(C)c1Oc1ccccc1F | inactive | 7.7
CCCc1cnc(-n2nc(OC(C)C)c(Oc3c(F)cccc3F)c2C)c(F)c1 | inactive | 6.7
CCOc1nn(-c2ccc(C3CC3)cn2)c(C)c1Oc1ccccc1Cl | inactive | 7.9
CCOc1nn(-c2ccc(C3CC3)nn2)c(C)c1Oc1ccccc1Br | inactive | 7.2
Cc1c(Oc2c(F)cccc2F)c(OC(C)C)nn1-c1cnc(C(C)(C)C)nc1 | inactive | 
CCOc1nn(-c2ccc(OC)cn2)c(C)c1Cc1ccccc1 | inactive | 5.5
Cc1c(Oc2ccc(F)cc2F)c(OC(C)C)nn1-c1ccc(C2CC2)nn1 | inactive | 6.4
CCOc1nn(-c2ccc(C3CC3)nn2)c(C)c1Oc1cccc(Cl)c1Cl | inactive | 7.4
CCOc1nn(-c2cccc(C(F)(F)F)n2)c(C)c1Cc1ccccc1 | inactive | <5

Structure (SMILES) | growth inhibition (GI) (Plasmodium falciparum) | pMIC50 (Measles morbillivirus)
CCOc1nn(-c2ccc(C#N)cn2)c(C)c1Cc1ccccc1 | inactive | <5
COc1cc(C2CC2)cnc1-n1nc(OC(C)C)c(Oc2c(F)cccc2F)c1C | inactive | 7.5
Cc1c(Oc2c(F)cccc2F)c(OC(C)C)nn1-c1cnc(C2CC2)nc1 | inactive | 6.8
CCOc1nn(-c2ccc(C(C)C)cn2)c(C)c1Cc1ccccc1 | inactive | 5.9
CCOc1nn(-c2ccc(C3CC3)nn2)c(C)c1Oc1ccc(C(F)(F)F)cc1 | inactive | 5.2
Cc1c(Oc2c(F)cccc2F)c(OC(C)C)nn1-c1ncc(C2CC2)cc1OCc1ccccc1 | inactive | 7
Cc1c(Oc2c(F)cccc2F)c(OC(C)C)nn1-c1ccc(Cl)nn1 | inactive | 6.8
Cc1c(Oc2c(F)cccc2F)c(OC(C)C)nn1-c1ccc(Br)cn1 | inactive | 6.3
Cc1c(Oc2cccc(F)c2F)c(OC(C)C)nn1-c1ccc(C2CC2)nn1 | inactive | 7.4
Cc1c(Oc2cccc(F)c2)c(OC(C)C)nn1-c1ccc(C2CC2)nn1 | inactive | 6.4
Cc1c(Oc2ccccc2F)c(OC(C)C)nn1-c1ccc(C2CC2)nn1 | inactive | 7.4
Cc1c(-c2ccc(-c3ccccc3F)cc2)nc2ccc(F)cc2c1C(=O)O | inactive | 
Cc1c(Oc2cc(F)ccc2F)c(OC(C)C)nn1-c1ccc(C2CC2)cn1 | inactive | 7.4
CCOc1nn(-c2ccc(C3CC3)nn2)c(C)c1Oc1ccccc1Cl | inactive | 7.1
Cc1c(Oc2c(F)cccc2F)c(OC(C)C)nn1-c1cnc(C2CC2)cn1 | inactive | 
CCOc1nn(-c2ccc(C3CC3)cn2)c(C)c1Oc1ccccc1C(F)(F)F | inactive | 7.3
CCOc1nn(-c2cccc(C)n2)c(C)c1Cc1ccccc1 | inactive | <5
CCOc1nn(-c2ncc(C3CC3)cc2F)c(C)c1Cc1ccccc1 | inactive | 7
Cc1cc(Br)cnc1-n1nc(OC(C)C)c(Oc2c(F)cccc2F)c1C | inactive | 5.9
CCc1ccc(-n2nc(OC(C)C)c(Oc3c(F)cccc3F)c2C)nc1 | inactive | 7.1
CCOc1nn(-c2ccc(C(F)(F)F)cn2)c(C)c1Cc1ccccc1 | inactive | 5.5
CCOc1nn(-c2ccc(C(C)=O)cn2)c(C)c1Cc1ccccc1 | inactive | <5
CCOc1nn(-c2ccc(C3CC3)cn2)c(C)c1Oc1cccc(Cl)c1Cl | inactive | 7.9
CCOc1nn(-c2ncc(Br)cc2F)c(C)c1Cc1ccccc1 | inactive | 5.9
CC(=O)c1ccc(-n2nc(OC(C)C)c(Oc3c(F)cccc3F)c2C)nc1 | inactive | 6.6
CCc1ccc(-n2nc(OC(C)C)c(Oc3c(F)cccc3F)c2C)cn1 | inactive | 
